Among the data in patent publication US20240190862A1 (AMGEN INC., priority 2019, published 2024) are IC50 values, retold here.

Experiment [1] concerns the target GDP-bound KRAS protein (aa 1-169) G12D/C118A (Homo sapiens (Human), UniProt P01116, C118A/G12D). Description: Coupled Nucleotide Exchange Assay (KRAS G12D). Conditions: 20 h compound pre-incubation; read-out: GDP KRAS G12D 20 h Coupled Exchange IC50 IP. The format is biochemical. Here is the method:
(§1) Coupled Nucleotide Exchange Assay: Purified GDP-bound KRAS protein (aa 1-169), containing either G12C or G12D, as well as C118A amino acid substitutions and an N-terminal His-tag, was pre-incubated in assay buffer (25 mM HEPES pH 7.4, 10 mM MgCl2, and 0.01% Triton X-100) with a compound dose-response titration for either 5 min or 20 hours (see Table 15). Following compound pre-incubation, purified SOS protein (aa 564-1049) and GTP (Roche 10106399001) were added to the assay wells and incubated for an additional 30 min. To determine the extent of inhibition of SOS-mediated nucleotide exchange, purified GST-tagged cRAF (aa 1-149), nickel chelate AlphaLISA acceptor beads (PerkinElmer AL108R), and AlphaScreen glutathione donor beads (PerkinElmer 6765302) were added to the assay wells and incubated for 10 minutes. The assay plates were then read on a PerkinElmer EnVision Multilabel Reader, using AlphaScreen® technology, and data were analyzed using a 4-parameter logistic model to calculate IC50 values.

Experiment [2] concerns the target GDP-bound KRAS protein (aa 1-169) G12C/C118A (Homo sapiens (Human), UniProt P01116, C118A/G12C). The experiment can be described thus: Coupled Nucleotide Exchange Assay (KRAS G12C). In kind it is biochemical. Here is the method:
as §1

The mark [3] stands for this setting: 5 min compound pre-incubation, read-out: GDP KRAS G12C 5 min Coupled Exchange IC50 IP.
Setting [4] is: 20 h compound pre-incubation, read-out: GDP KRAS G12C 20 h Coupled Exchange IC50 IP.

Read-outs that look alike come from different tables or passages of the source.

GDP-bound KRAS protein (aa 1-169) G12C/C118A, sequence (P01116 other isoform, or with tags, fused parts or gaps G12C/C118A): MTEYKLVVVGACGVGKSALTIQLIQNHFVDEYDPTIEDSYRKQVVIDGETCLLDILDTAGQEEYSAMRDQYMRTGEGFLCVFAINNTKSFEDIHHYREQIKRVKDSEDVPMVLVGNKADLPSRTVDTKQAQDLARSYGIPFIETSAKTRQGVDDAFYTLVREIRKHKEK
GDP-bound KRAS protein (aa 1-169) G12D/C118A, sequence (P01116 other isoform, or with tags, fused parts or gaps G12D/C118A): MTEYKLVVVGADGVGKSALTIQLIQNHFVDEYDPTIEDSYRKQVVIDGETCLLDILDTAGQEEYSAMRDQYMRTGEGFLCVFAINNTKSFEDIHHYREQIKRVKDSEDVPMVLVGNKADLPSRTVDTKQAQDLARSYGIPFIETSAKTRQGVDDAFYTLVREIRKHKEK

`Cc1ccnc(C(C)C)c1-n1c(=O)nc(N2CCN(C(=O)COc3cccc(F)c3F)C[C@@H]2C)c2cc(Cl)c(-c3ccccc3F)nc21` [Example 12, (S)-6-Chloro-7-(2-fluorophenyl)-1-(2-isopropyl-4-methylpyridin-3-yl)-4-(2-methyl-4-(2-(2,3-difluorophenoxy)acetyl)piperazin-1-yl)pyrido[2,3-d]pyrimidin-2(1H)-one]: the half-maximal inhibitory concentration (IC50) is more than 250 µM in experiment [1], 35.7 µM in experiment [2] (setting [3]) and 2.02 µM in experiment [2] (setting [4]).

Turning to `Cc1ccnc(C(C)C)c1-n1c(=O)nc(N2CCN(C(=O)[C@H]3CN3)C[C@@H]2C)c2cc(Cl)c(-c3ccccc3F)nc21` [Example 14, 4-((S)-4-((R)-Aziridine-2-carbonyl)-2-methylpiperazin-1-yl)-6-chloro-7-(2-fluorophenyl)-1-(2-isopropyl-4-methylpyridin-3-yl)pyrido[2,3-d]pyrimidin-2(1H)-one], the IC50 was more than 250 µM in experiment [1], 88.3 µM in experiment [2] (setting [3]) and 1.56 µM in experiment [2] (setting [4]).

In the case of `Cc1ccnc(C(C)C)c1-n1c(=O)nc(N2CCN(C(=O)[C@@H]3CO3)C[C@@H]2C)c2cc(Cl)c(-c3ccccc3F)nc21` [Example 15, 6-Chloro-7-(2-fluorophenyl)-1-(2-isopropyl-4-methylpyridin-3-yl)-4-((S)-2-methyl-4-((S)-oxirane-2-carbonyl)piperazin-1-yl)pyrido[2,3-d]pyrimidin-2(1H)-one], the values for the IC50 in experiment [1], in experiment [2] (setting [3]) and in experiment [2] (setting [4]) were more than 250 µM, 74.1 µM and 0.83 µM, respectively.

On to `CCOC(=O)[C@H]1O[C@@H]1C(=O)N1CCN(c2nc(=O)n(-c3c(C)ccnc3C(C)C)c3nc(-c4ccccc4F)c(Cl)cc23)[C@@H](C)C1` [Example 18, Ethyl (2S,3S)-3-((S)-4-(6-chloro-7-(2-fluorophenyl)-1-(2-isopropyl-4-methylpyridin-3-yl)-2-oxo-1,2-dihydropyrido[2,3-d]pyrimidin-4-yl)-3-methylpiperazine-1-carbonyl)oxirane-2-carboxylate], for which the IC50 in experiment [1] was more than 250 µM; in experiment [2] (setting [3]) it was 23.9 µM; in experiment [2] (setting [4]) it was 0.53 µM.

For `Cc1ccnc(C(C)C)c1-n1c(=O)nc(N2CCN(C(=O)[C@@H]3O[C@H]3C(=O)O)C[C@@H]2C)c2cc(Cl)c(-c3ccccc3F)nc21` [Example 20, (2R,3R)-3-((S)-4-(6-chloro-7-(2-fluorophenyl)-1-(2-isopropyl-4-methylpyridin-3-yl)-2-oxo-1,2-dihydropyrido[2,3-d]pyrimidin-4-yl)-3-methylpiperazine-1-carbonyl)oxirane-2-carboxylic acid], the IC50 in experiment [1] was more than 250 µM; in experiment [2] (setting [4]) it was 1 µM.

In the case of `Cc1ccnc(C(C)C)c1-n1c(=O)nc(N2CCN(C(=O)[C@@H]3O[C@H]3CN3CCCCC3)C[C@@H]2C)c2cc(Cl)c(-c3ccccc3F)nc21` [Example 21, 6-Chloro-7-(2-fluorophenyl)-1-(2-isopropyl-4-methylpyridin-3-yl)-4-((S)-2-methyl-4-((2R,3S)-3-(piperidin-1-ylmethyl)oxirane-2-carbonyl)piperazin-1-yl)pyrido[2,3-d]pyrimidin-2(1H)-one], the IC50 is more than 250 µM in experiment [1], 1.12 µM in experiment [2] (setting [3]) and 0.005 µM in experiment [2] (setting [4]).

Consider `Cc1ccnc(C(C)C)c1-n1c(=O)nc(N2CCN(C(=O)[C@@H]3O[C@H]3CO)C[C@@H]2C)c2cc(Cl)c(-c3ccccc3F)nc21` [Example 22, 6-Chloro-7-(2-fluorophenyl)-4-((S)-4-((2R,3S)-3-(hydroxymethyl)oxirane-2-carbonyl)-2-methylpiperazin-1-yl)-1-(2-isopropyl-4-methylpyridin-3-yl)pyrido[2,3-d]pyrimidin-2(1H)-one], for which the IC50 was more than 250 µM in experiment [1], 6.26 µM in experiment [2] (setting [3]) and 0.064 µM in experiment [2] (setting [4]).

Take `Cc1ccnc(C(C)C)c1-n1c(=O)nc(N2CCN(C(=O)C3CO3)[C@@H](CC#N)C2)c2cc(Cl)c(-c3ccccc3F)nc21` (stereo partly drawn) [Example 23, 2-((2S)-4-(6-Chloro-7-(2-fluorophenyl)-1-(2-isopropyl-4-methylpyridin-3-yl)-2-oxo-1,2-dihydropyrido[2,3-d]pyrimidin-4-yl)-1-(oxirane-2-carbonyl)piperazin-2-yl)acetonitrile]: the IC50 in experiment [1] is more than 250 µM; in experiment [2] (setting [3]), more than 250 µM; in experiment [2] (setting [4]), 0.431 µM.

For the compound `Cc1ccnc(C(C)C)c1-n1c(=O)nc(N2CC3(CN(C(=O)C4CO4)C3)C2)c2cc(Cl)c(-c3ccccc3F)nc21` (stereo not shown) [Example 24, 6-Chloro-7-(2-fluorophenyl)-1-(2-isopropyl-4-methylpyridin-3-yl)-4-(6-(oxirane-2-carbonyl)-2,6-diazaspiro[3.3]heptan-2-yl)pyrido[2,3-d]pyrimidin-2(1H)-one], the results for the IC50 in experiment [1], in experiment [2] (setting [3]) and in experiment [2] (setting [4]) were more than 250 µM, 222 µM and 41.6 µM, respectively.

For `Cc1ccnc(C(C)C)c1-n1c(=O)nc(N2CCC3(CC2)CN(C(=O)[C@H]2CO2)C3)c2cc(Cl)c(-c3ccccc3F)nc21` [Example 25, (R)-6-chloro-7-(2-fluorophenyl)-1-(2-isopropyl-4-methylpyridin-3-yl)-4-(2-(oxirane-2-carbonyl)-2,7-diazaspiro[3.5]nonan-7-yl)pyrido[2,3-d]pyrimidin-2(1H)-one], the IC50 was more than 250 µM in experiment [1] and 7.15 µM in experiment [2] (setting [4]).

For the compound `Cc1ccnc(C(C)C)c1-n1c(=O)nc(N2CC[C@@H](NC(=O)C3CO3)C2)c2cc(Cl)c(-c3ccccc3F)nc21` (stereo partly drawn) [Example 26, N—((R)-1-(6-Chloro-7-(2-fluorophenyl)-1-(2-isopropyl-4-methylpyridin-3-yl)-2-oxo-1,2-dihydropyrido[2,3-d]pyrimidin-4-yl)pyrrolidin-3-yl)oxirane-2-carboxamide], the IC50 in experiment [1] is more than 250 µM; in experiment [2] (setting [3]), 194 µM; in experiment [2] (setting [4]) it was 2.99 µM.

With `Cc1ccnc(C(C)C)c1-n1c(=O)nc(N2CC(NC(=O)C3CO3)C2)c2cc(Cl)c(-c3ccccc3F)nc21` (stereo not shown) [Example 27], the IC50 in experiment [1] is more than 250 µM; in experiment [2] (setting [3]), 4.41 µM; in experiment [2] (setting [4]), 0.018 µM.

`Cc1ccnc(C(C)C)c1-n1c(=O)nc(N2CCC3C2CN3C(=O)C2CO2)c2cc(Cl)c(-c3ccccc3F)nc21` (stereo not shown) [Example 28, 6-Chloro-7-(2-fluorophenyl)-1-(2-isopropyl-4-methylpyridin-3-yl)-4-(6-(oxirane-2-carbonyl)-2,6-diazabicyclo[3.2.0]heptan-2-yl)pyrido[2,3-d]pyrimidin-2(1H)-one]: the IC50 in experiment [1] is more than 250 µM; in experiment [2] (setting [3]) it was 193 µM; in experiment [2] (setting [4]), 0.647 µM.

For `Cc1ccnc(C(C)C)c1-n1c(=O)nc(N(C)C2CN(C(=O)C3CO3)C2)c2cc(Cl)c(-c3ccccc3F)nc21` (stereo not shown) [Example 29], the IC50 in experiment [1] was more than 250 µM; in experiment [2] (setting [3]) it was 13.8 µM; in experiment [2] (setting [4]) it was 0.227 µM.

The IC50 is the concentration that gives 50% inhibition.
